Assay results reported in PubChem BioAssay (NCI).
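Briefly, cells in 96-well plates were exposed to five compound concentrations for 48 h, and endpoints were estimated by linear interpolation. GI50 marks 50% less growth. TGI denotes the concentration required for complete inhibition of growth.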

Key:
Assay in all cases: inhibition of tumour cell growth, NCI panel, 48 h
HL-60(TB) leukemia = tested on: HL-60(TB) leukemia
COLO 205 colon = tested on: COLO 205 colon
UACC-62 melanoma = tested on: UACC-62 melanoma
OVCAR-4 ovarian = tested on: OVCAR-4 ovarian
MOLT-4 leukemia = tested on: MOLT-4 leukemia
HCT-116 colon = tested on: HCT-116 colon
HT29 colon = tested on: HT29 colon
M14 melanoma = tested on: M14 melanoma
HOP-62 NSCLC = tested on: HOP-62 NSCLC
HCC-2998 colon = tested on: HCC-2998 colon
A549 NSCLC = tested on: A549 NSCLC
MALME-3M melanoma = tested on: MALME-3M melanoma
786-0 renal = tested on: 786-0 renal
SF-268 CNS = tested on: SF-268 CNS
RPMI-8226 leukemia = tested on: RPMI-8226 leukemia
KM12 colon = tested on: KM12 colon
RXF 393 renal = tested on: RXF 393 renal
SN12C renal = tested on: SN12C renal
LOX IMVI melanoma = tested on: LOX IMVI melanoma
HOP-92 NSCLC = tested on: HOP-92 NSCLC
SW-620 colon = tested on: SW-620 colon
BT-549 breast = tested on: BT-549 breast
SF-539 CNS = tested on: SF-539 CNS
SK-MEL-5 melanoma = tested on: SK-MEL-5 melanoma
K-562 leukemia = tested on: K-562 leukemia
HS 578T breast = tested on: HS 578T breast
U251 CNS = tested on: U251 CNS
NCI-H460 lung = tested on: NCI-H460 lung
DU-145 prostate = tested on: DU-145 prostate
IGROV1 ovarian = tested on: IGROV1 ovarian
A498 renal = tested on: A498 renal
NCI-H522 lung = tested on: NCI-H522 lung
OVCAR-8 ovarian = tested on: OVCAR-8 ovarian
SNB-75 CNS = tested on: SNB-75 CNS
EKVX NSCLC = tested on: EKVX NSCLC
SK-MEL-28 melanoma = tested on: SK-MEL-28 melanoma
MCF7 breast = tested on: MCF7 breast
SK-MEL-2 melanoma = tested on: SK-MEL-2 melanoma
CCRF-CEM leukemia = tested on: CCRF-CEM leukemia
UO-31 renal = tested on: UO-31 renal
NCI/ADR-RES ovarian = tested on: NCI/ADR-RES ovarian
SR leukemia = tested on: SR leukemia
SF-295 CNS = tested on: SF-295 CNS
T-47D breast = tested on: T-47D breast
SNB-19 CNS = tested on: SNB-19 CNS
MDA-MB-231 breast = tested on: MDA-MB-231 breast
PC-3 prostate = tested on: PC-3 prostate
OVCAR-5 ovarian = tested on: OVCAR-5 ovarian
TK-10 renal = tested on: TK-10 renal
MDA-MB-435 = tested on: MDA-MB-435
ACHN renal = tested on: ACHN renal
OVCAR-3 ovarian = tested on: OVCAR-3 ovarian
UACC-257 melanoma = tested on: UACC-257 melanoma
HCT-15 colon = tested on: HCT-15 colon
NCI-H23 lung = tested on: NCI-H23 lung
CAKI-1 renal = tested on: CAKI-1 renal

CC[C@]12CCCN3CC[C@]4(C(=C(C(=O)OC)C1)Nc1ccccc14)[C@@H]32
GI50 (HL-60(TB) leukemia): 21.9 µM | TGI (HL-60(TB) leukemia): 52 µM | GI50 (COLO 205 colon): 16.9 µM | TGI (COLO 205 colon): 35.7 µM | GI50 (UACC-62 melanoma): 11.4 µM | TGI (UACC-62 melanoma): 31 µM | GI50 (OVCAR-4 ovarian): 15.4 µM | TGI (OVCAR-4 ovarian): 54.8 µM | GI50 (MOLT-4 leukemia): 18.8 µM | TGI (MOLT-4 leukemia): 43.7 µM | GI50 (HCT-116 colon): 14.6 µM | TGI (HCT-116 colon): 33 µM | GI50 (HT29 colon): 14.1 µM | TGI (HT29 colon): 33.9 µM | GI50 (M14 melanoma): 20.5 µM | TGI (M14 melanoma): 51.7 µM | GI50 (HOP-62 NSCLC): 15.6 µM | TGI (HOP-62 NSCLC): 32.7 µM | GI50 (HCC-2998 colon): 14.6 µM | TGI (HCC-2998 colon): 29 µM | GI50 (A549 NSCLC): 16.3 µM | TGI (A549 NSCLC): 42.6 µM | GI50 (MALME-3M melanoma): 13 µM | TGI (MALME-3M melanoma): 29.7 µM | GI50 (786-0 renal): 13.9 µM | TGI (786-0 renal): 29.1 µM | GI50 (SF-268 CNS): 18 µM | TGI (SF-268 CNS): 37.8 µM | GI50 (RPMI-8226 leukemia): 19.4 µM | TGI (RPMI-8226 leukemia): 51.2 µM | GI50 (KM12 colon): 16.7 µM | TGI (KM12 colon): 39.1 µM | GI50 (RXF 393 renal): 15.5 µM | TGI (RXF 393 renal): 30.4 µM | GI50 (SN12C renal): 16.4 µM | TGI (SN12C renal): 33.2 µM | GI50 (LOX IMVI melanoma): 14.3 µM | TGI (LOX IMVI melanoma): 27.5 µM | GI50 (HOP-92 NSCLC): 7.09 µM | TGI (HOP-92 NSCLC): 24.6 µM | GI50 (SW-620 colon): 16.2 µM | TGI (SW-620 colon): 33.3 µM | GI50 (BT-549 breast): 19.8 µM | TGI (BT-549 breast): 46.7 µM | GI50 (SF-539 CNS): 18.2 µM | TGI (SF-539 CNS): 37.9 µM | GI50 (SK-MEL-5 melanoma): 15.4 µM | TGI (SK-MEL-5 melanoma): 28.8 µM | GI50 (K-562 leukemia): 11.9 µM | TGI (K-562 leukemia): 43.4 µM | GI50 (HS 578T breast): 17.3 µM | TGI (HS 578T breast): 76.1 µM | GI50 (U251 CNS): 15.1 µM | TGI (U251 CNS): 29.6 µM | GI50 (NCI-H460 lung): 18.1 µM | TGI (NCI-H460 lung): 38.3 µM | GI50 (DU-145 prostate): 16.8 µM | TGI (DU-145 prostate): 35.2 µM | GI50 (IGROV1 ovarian): 16.8 µM | TGI (IGROV1 ovarian): 45.6 µM | GI50 (A498 renal): 16.1 µM | TGI (A498 renal): 32.4 µM | GI50 (NCI-H522 lung): 13 µM | TGI (NCI-H522 lung): 30.3 µM | GI50 (OVCAR-8 ovarian): 17.6 µM | TGI (OVCAR-8 ovarian): 38.9 µM | GI50 (SNB-75 CNS): 13.6 µM | TGI (SNB-75 CNS): 61.9 µM | GI50 (EKVX NSCLC): 18.9 µM | TGI (EKVX NSCLC): 63.1 µM | GI50 (SK-MEL-28 melanoma): 21.3 µM | TGI (SK-MEL-28 melanoma): 64.7 µM | GI50 (MCF7 breast): 16 µM | TGI (MCF7 breast): 33.8 µM | GI50 (SK-MEL-2 melanoma): 16.8 µM | TGI (SK-MEL-2 melanoma): 39.2 µM | GI50 (CCRF-CEM leukemia): 21.4 µM | TGI (CCRF-CEM leukemia): 70 µM | GI50 (UO-31 renal): 10.9 µM | TGI (UO-31 renal): 24.1 µM | GI50 (NCI/ADR-RES ovarian): 14.3 µM | TGI (NCI/ADR-RES ovarian): 33.4 µM | GI50 (SR leukemia): 17.2 µM | TGI (SR leukemia): > 100 µM | GI50 (SF-295 CNS): 17.9 µM | TGI (SF-295 CNS): 36.1 µM | GI50 (T-47D breast): 16.6 µM | TGI (T-47D breast): 80.5 µM | GI50 (SNB-19 CNS): 22.9 µM | TGI (SNB-19 CNS): 66.2 µM | GI50 (MDA-MB-231 breast): 15.5 µM | TGI (MDA-MB-231 breast): 38.1 µM | GI50 (PC-3 prostate): 20.5 µM | TGI (PC-3 prostate): 61.5 µM | GI50 (OVCAR-5 ovarian): 15.9 µM | TGI (OVCAR-5 ovarian): 34.1 µM | GI50 (TK-10 renal): 19.9 µM | TGI (TK-10 renal): 56.7 µM | GI50 (MDA-MB-435): 11.1 µM | TGI (MDA-MB-435): 41 µM | GI50 (ACHN renal): 15.3 µM | TGI (ACHN renal): 28.6 µM | GI50 (OVCAR-3 ovarian): 17 µM | TGI (OVCAR-3 ovarian): 31.1 µM | GI50 (UACC-257 melanoma): 16.7 µM | TGI (UACC-257 melanoma): 42.2 µM | GI50 (HCT-15 colon): 13.7 µM | TGI (HCT-15 colon): 28.5 µM | GI50 (NCI-H23 lung): 17.1 µM | TGI (NCI-H23 lung): 43.8 µM | GI50 (CAKI-1 renal): 11.8 µM | TGI (CAKI-1 renal): 32.8 µM
